Paper PMC10539439 (Pharmacological Reports, 2023)
Where “and” joins values, the source holds several entries; their conditions need not be identical. Equal entries are not always repeated.

What was measured:
[1] = Pharmacokinetics in plasma after ip administration; format: in vivo, rat; conditions: plasma; for concentration in plasma (single sample): individual samples 1-3
Method: (§1) For the pharmacokinetic study, a group of 56 adult male rats (Wistar, 220–250 g, […]) were used in the experiment. Animals were purchased from the Animal House of the Faculty of Pharmacy of Jagiellonian University Medical College, Krakow, Poland. During the habituation period, the groups of 4 rats were kept in a plastic cage at a controlled room temperature (22 ± 2 ℃), humidity (55 ± 10%), full-spectrum cold white light (350–400 lx), in 12 h light/dark cycles (the lights on at 7:00 am, and off at 19:00 pm), and had free access to standard laboratory pellet and tap water. […] These were then given through an intraperitoneally injections (ip) at a dose of 0.3 mg/kg and 0.4 mg/kg, respectively. Blood samples were collected at 0 min (predose), 5 min, 15 min, 30 min, 60 min, 120 min, and 240 min after compound administration. Blood and brain samples were collected under general anesthesia induced by ip injections of 50 mg/kg ketamine plus 8 mg/kg xylazine. Blood samples were taken in heparinized tubes and immediately centrifuged at 3500 rpm for 10 min, and plasma was collected. Brain and plasma samples were immediately frozen at – 80 ℃ for LC/MS/MS analysis. All experimental procedures were carried out according to EU Directive 2010/63/EU and approved by the I Local Ethics Committee for Animal Experiments of the Jagiellonian University in Krakow, Poland (No. 94/2016).
(§2) The pharmacokinetic parameters were calculated using a non-compartmental approach from the average concentration values, using Phoenix WinNonlin software (Certara, Princeton, NJ 08540 USA). The first-order elimination rate constant (λz) was calculated by linear regression of time versus log concentration. Next, the area under the mean plasma and the concentration in the brain versus the time curve (AUC0→t) were estimated using the log-linear trapezoidal rule (Eq. 1), where Cn is the concentration of the last sampling of each compound1 AUC0→t=∑i=1n(Ci+Ci+1)/2·ti+1-ti+Cn/λz.
The area under the first-moment curve (AUMC0→t) was estimated by calculating of the total area under the first-moment curve using Eq. 2, where tn is the time of last sampling2 AUMC0→t=∑i=1n(ti·Ci+ti+1·Ci+1)/2·ti+1-ti+(tn·Cn)/λz+Cn/λz2.
Mean residence time (MRT, Eq. 3) was calculated as3 MRT=AUMC0→t/AUC0→t.
Total clearance (ClT, Eq. 4) was calculated as4 C1T=F·Di.p./AUC0→t.
(§3) The quantification of compounds in plasma and brain samples was performed using the Sciex API 3200 triple quadrupole mass spectrometer (Concord, Ontario, Canada) equipped with an electrospray (ESI) ionization interface. This instrument was coupled to an Elite LaChrom (Hitachi, USA) HPLC system. Data acquisition and processing were performed using Sciex Analyst 1.5.2 data collection and integration software. After preparation, the samples were injected (20 µL) onto XBridge C18 (2.1 mm × 30 mm, 3.5 μm, Waters, Milford, Massachusetts, USA) analytical column. The mobile phase consisted of 0.1% formic acid in acetonitrile (A) and 0.1% formic acid in water (B) was delivered in a gradient elution starting with 90% of eluent B, increasing for 2 min to 90% of eluent A, maintained for 3 min, and then returned for 5 min to 90% of eluent B, and maintained 90% of eluent B during 5 min at a flow rate of 300 µL/min. The total analysis time was 10 min. […] The ion spray source settings were as follows: spray voltage: 5.5 kV, heater temperature: 400 °C, curtain gas: 10 psi, source gas 1: 20 psi, and source gas 2: 20 psi.
Further dilutions were performed using the same solvent to prepare working standard solutions of the analyte at the following concentrations: 0.025, 0.05, 0.1, 0.25, 0.5, 1.0, 2.5, 5.0, 10, 25, and 50 µg/mL for calibration curve samples (CC) and 0.025, 0.075, 2.2, and 4.5 µg/mL for quality control samples (QC). […]

[2] = Distribution in brain after ip administration; format: in vivo, rat; conditions: brain; for concentration in brain (single sample): individual samples 1-3
Method: as §1, with “Poland.” for “Poland. During the habituation period, the groups of 4 rats were kept in a plastic cage at a controlled room temperature (22 ± 2 ℃), humidity (55 ± 10%), full-spectrum cold white light (350–400 lx), in 12 h light/dark cycles (the lights on at 7:00 am, and off at 19:00 pm), and had free access to standard laboratory pellet and tap water.”
as §2, §3
Further dilutions were performed using the same solvent to prepare working standard solutions of the analyte at the following concentrations: 0.025, 0.05, 0.1, 0.25, 0.5, 1.0, 2.5, 5.0, 10, 25, and 50 µg/mL for calibration curve samples (CC) and 0.025, 0.075, 2.2, and 4.5 µg/mL for quality control samples (QC). To prepare samples for calibration curve or quality control samples, 45 µL of the matrix (plasma or brain homogenate) was added with 5 µL of internal standard solution (1 µg/mL) obtaining the final concentration of 100 ng/mL and 5 µL of standard working solutions at the needed CC or QC concentration levels. After the addition of the standard solution, the samples were mixed and purified.
A sample volume of 50 µL of plasma or brain homogenate was transferred to the clean Eppendorf tube and spiked with 5 µL of IS solution (1 µg/mL) obtaining the final concentration of 100 ng/mL. After 5 min of mixing (1500 rpm) proteins were precipitated using 200 µL ACN. After 10 min of sample shaking (1500 rpm), the incubation step was performed (10 min, 4 °C). The samples were then centrifuged (10,000 rpm, 10 min, 4 °C) and the supernatant was transferred to chromatographic vials for LC/MS/MS analysis.

α2A-adrenoceptor = molecular target: T1, α2A-adrenoceptor (Homo sapiens, UniProt P08913); test: Intrinsic activity, Tango beta-lactamase reporter assay; format: cell-based; conditions: ADRAA2A
T1 sequence (P08913 1-465): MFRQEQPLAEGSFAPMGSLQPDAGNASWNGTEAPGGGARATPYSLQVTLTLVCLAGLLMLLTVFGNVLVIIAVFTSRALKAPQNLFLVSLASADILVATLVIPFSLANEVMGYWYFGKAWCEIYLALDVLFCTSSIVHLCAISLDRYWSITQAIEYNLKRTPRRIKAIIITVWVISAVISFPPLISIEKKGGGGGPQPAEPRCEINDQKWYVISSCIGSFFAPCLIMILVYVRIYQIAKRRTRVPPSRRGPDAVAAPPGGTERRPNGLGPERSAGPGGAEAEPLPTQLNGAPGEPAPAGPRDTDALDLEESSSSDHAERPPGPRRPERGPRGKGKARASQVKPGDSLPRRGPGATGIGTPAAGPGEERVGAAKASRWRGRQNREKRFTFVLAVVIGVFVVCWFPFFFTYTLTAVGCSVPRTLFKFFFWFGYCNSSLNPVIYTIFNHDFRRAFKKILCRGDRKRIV
Method: The intrinsic activity at α2A-adrenoceptor was assessed by the Tango assay technology that uses a mammalian-optimized beta-lactamase (bla) reporter gene combined with an FRET-enabled substrate to provide reliable and sensitive detection in cells. Cells are loaded with an engineered fluorescent substrate containing two fluorophores, coumarin, and fluorescein. In the absence of bla expression, the substrate molecule remains intact. In this state, excitation of the coumarin results in a transfer of fluorescence resonance energy to the fluorescein moiety and emission of green fluorescent light. However, in the presence of bla expression, the substrate is cleaved, separating the fluorophores and disrupting energy transfer. Excitation of the coumarin in the presence of bla enzyme activity results in a blue fluorescence signal.
Intrinsic activity assay was performed according to the manufacturer of the assay kit (Invitrogen, Life Technologies). Cells were harvested and resuspended in an assay medium at a density of 312,500 cells/ml. 32 μL per well of cell suspension was added to the test compound wells, the unstimulated control wells, and the stimulated control wells, and incubated for 16–24 h. To perform an agonist assay, 8 μL of 5 × of agonist in the assay medium was added to the cells. […] Then, the agonist and antagonist plates were incubated in a humidified incubator at 37 °C/5% CO2 for 5 h. After the incubation, 8 μL of LiveBLAzer™-FRET B/G substrate mixture (CCF4-AM) was loaded into cells in the absence of direct strong lighting, covered, and incubated at room temperature for 2 h.

**Q.** For `Cl.N=C(N)N/N=C/c1c(Cl)cc(O)cc1Cl` [HGB], which “concentration in plasma (single sample)” value ([1]; 5 min) is on record?
**A.** The value was 41.279 ng/mL and 54.6155 ng/mL and 66.8757 ng/mL.

**Q.** And the “concentration in plasma (mean)” value ([1]; 5 min after administration)?
**A.** The value was 54.2567 ng/mL.

**Q.** What about the “concentration in plasma (single sample)” value ([1]; 15 min) of the same compound?
**A.** Its value is 105.888 ng/mL and 100.591 ng/mL and 95.109 ng/mL.

**Q.** What about the “concentration in plasma (mean)” value ([1]; 15 min after administration) of the same compound?
**A.** The value was 100.53 ng/mL.

**Q.** What about the “concentration in plasma (single sample)” value ([1]; 30 min) of the same compound?
**A.** The value was 16.0042 ng/mL and 23.9125 ng/mL and 20.5783 ng/mL.

**Q.** And the “concentration in plasma (mean)” value ([1]; 30 min after administration)?
**A.** The value was 20.165 ng/mL.

**Q.** And the “concentration in plasma (single sample)” value ([1]; 60 min)?
**A.** Its value is 44.699 ng/mL and 41.9435 ng/mL and 39.1715 ng/mL.

**Q.** What about the “concentration in plasma (mean)” value ([1]; 60 min after administration) of the same compound?
**A.** The value was 41.938 ng/mL.

**Q.** What about the “concentration in plasma (single sample)” value ([1]; 120 min) of the same compound?
**A.** Its value is 10.1897 ng/mL and 6.772 ng/mL and 9 ng/mL.

**Q.** And the “concentration in plasma (mean)” value ([1]; 120 min after administration)?
**A.** The value was 8.6536 ng/mL.

**Q.** What about the “concentration in plasma (single sample)” value ([1]; 240 min) of the same compound?
**A.** The value was 5.591 ng/mL and 8.595 ng/mL and 5.3874 ng/mL.

**Q.** What about the “concentration in plasma (mean)” value ([1]; 240 min after administration) of the same compound?
**A.** The value was 6.524 ng/mL.

**Q.** And the “concentration in brain (single sample)” value ([2]; 5 min)?
**A.** The value was 14.9497 ng/g and 11.5414 ng/g and 13.5496 ng/g.

**Q.** What about the “concentration in brain (mean)” value ([2]; 5 min after administration) of the same compound?
**A.** Its value is 13.3469 ng/g.

**Q.** And the “concentration in brain (single sample)” value ([2]; 15 min)?
**A.** Its value is 59.5505 ng/g and 64.4857 ng/g and 70.3065 ng/g.

**Q.** What about the “concentration in brain (mean)” value ([2]; 15 min after administration) of the same compound?
**A.** The value was 64.7809 ng/g.

**Q.** What about the “concentration in brain (single sample)” value ([2]; 30 min) of the same compound?
**A.** Its value is 29.8349 ng/g and 23.7225 ng/g and 18.0636 ng/g.

**Q.** What about the “concentration in brain (mean)” value ([2]; 30 min after administration) of the same compound?
**A.** Its value is 23.8737 ng/g.

**Q.** And the “concentration in brain (single sample)” value ([2]; 60 min)?
**A.** The value was 5.077 ng/g and 3.611 ng/g and 4.9468 ng/g.

**Q.** And the “concentration in brain (mean)” value ([2]; 60 min after administration)?
**A.** The value was 4.545 ng/g.

**Q.** And the “concentration in brain (single sample)” value ([2]; 120 min)?
**A.** Its value is 3.263 ng/g and 4.746 ng/g and 3.8221 ng/g.

**Q.** What about the “concentration in brain (mean)” value ([2]; 120 min after administration) of the same compound?
**A.** Its value is 3.944 ng/g.

**Q.** What about the “concentration in brain (single sample)” value ([2]; 240 min) of the same compound?
**A.** The value was 2.689 ng/g and 4.759 ng/g and 2.17 ng/g.

**Q.** And the “concentration in brain (mean)” value ([2]; 240 min after administration)?
**A.** The value was 3.206 ng/g.

**Q.** Which “% of max response” value (α2A-adrenoceptor; agonist, concentration 1e-11) does the source give for `Brc1c(NC2=NCCN2)ccc2nccnc12` [brimonidine] here?
**A.** Its value is -0.4968% and 2.419% and -2.234% and 0.961%.

**Q.** And the “% of max response” value (α2A-adrenoceptor; agonist, concentration 1e-10)?
**A.** The value was 2.567% and 0.2495% and -1.378% and 1.408%.

**Q.** And the “% of max response” value (α2A-adrenoceptor; agonist, concentration 1e-9)?
**A.** Its value is 4.21% and 2.461% and -0.5064% and 3.335%.

**Q.** What about the “% of max response” value (α2A-adrenoceptor; agonist, concentration 1e-8) of the same compound?
**A.** The value was 48.0757% and 59.1796% and 30.9499% and 53.6276%.

**Q.** And the “% of max response” value (α2A-adrenoceptor; agonist, concentration 1e-7)?
**A.** The value was 88.9964% and 81.4266%.

**Q.** For `COC(=O)[C@@H]1[C@H]2C[C@H]3c4[nH]c5ccccc5c4CCN3C[C@@H]2CC[C@@H]1O` [Yohimbine], which “% of max response” value (α2A-adrenoceptor; antagonist vs brimonidine EC80, concentration 1e-11) is on record?
**A.** Its value is 99.193% and 99.631%.

**Q.** And the “% of max response” value (α2A-adrenoceptor; antagonist vs brimonidine EC80, concentration 1e-10)?
**A.** Its value is 89.6162%.

**Q.** What about the “% of max response” value (α2A-adrenoceptor; antagonist vs brimonidine EC80, concentration 1e-9) of the same compound?
**A.** Its value is 70.6442% and 68.4607%.

**Q.** And the “% of max response” value (α2A-adrenoceptor; antagonist vs brimonidine EC80, concentration 1e-8)?
**A.** The value was 17.048% and 15.1589%.

**Q.** And the “% of max response” value (α2A-adrenoceptor; antagonist vs brimonidine EC80, concentration 1e-7)?
**A.** The value was 6.64%.

**Q.** What about the “% of max response” value (α2A-adrenoceptor; antagonist vs brimonidine EC80, concentration 1e-6) of the same compound?
**A.** The value was 8.3079%.
